According to patent publication US6620839B2, “1,3-disubstituted and 1,3,3-trisubstituted pyrrolidines as histamine-3 receptor ligands and their therapeutic applications” (Abbott Laboratories, priority 2000, dated 2003):

Biological target: T1, histamine-3 receptor (Rattus norvegicus, UniProt Q9QYN8)
T1 construct: from tissue; host or cells: male Sprague-Dawley rat brain cortex membranes
Assay: Histamine-3 receptor binding, (3H)-N-α-methylhistamine displacement in rat cortical membranes
Conditions: male Sprague-Dawley rat brain cortical membranes; (3H)-N-α-methylhistamine ~0.6 nM; 30 minutes at 25° C.; Cheng-Prusoff
How it was run: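 Male Sprague-Dawley rat cortical membranes incubated 30 min at 25 °C with compound dilutions and [3H]-N-α-methylhistamine. Nonspecific binding defined with 3 μM thioperamide. Filtration and scintillation counting used; Ki from Hill transformation and Cheng-Prusoff equation.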

T1 sequence (Q9QYN8 whole entry): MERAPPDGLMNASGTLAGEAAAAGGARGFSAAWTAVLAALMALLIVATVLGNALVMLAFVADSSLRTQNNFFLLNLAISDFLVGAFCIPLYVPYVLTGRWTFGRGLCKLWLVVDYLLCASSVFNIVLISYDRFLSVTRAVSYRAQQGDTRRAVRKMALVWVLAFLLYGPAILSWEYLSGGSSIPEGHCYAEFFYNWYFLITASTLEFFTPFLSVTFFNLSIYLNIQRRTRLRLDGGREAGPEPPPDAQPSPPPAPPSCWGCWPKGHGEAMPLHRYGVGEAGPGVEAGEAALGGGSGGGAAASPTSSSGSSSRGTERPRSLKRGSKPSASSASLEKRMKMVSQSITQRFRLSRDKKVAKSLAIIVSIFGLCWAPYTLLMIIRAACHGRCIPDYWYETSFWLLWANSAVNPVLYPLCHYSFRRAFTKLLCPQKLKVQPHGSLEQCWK

Compound | Ki
CN(C)[C@@H]1CCN(CCCOc2c(F)cc(-c3ccc(C#N)cc3)cc2F)C1 [Example 172, 4′-{3-[(3R)-3-(dimethylamino)-1-pyrrolidinyl]propoxy}-3′,5′-difluoro-1,1′-biphenyl-4-carbonitrile] | 13 nM
N-((3R)-1-{3-[4-(cyclopropylcarbonyl)phenoxy]propyl}pyrrolidinyl)-4-isopropylbenzenesulfonamide [Example 67] | 2.9 nM
N-{(3R)-1-[3-(4-acetylphenoxy)propyl]pyrrolidinyl}-4-(trifluoromethoxy)benzenesulfonamide [Example 73] | 6.4 nM

Other lines, results leading:

Ki | Compound
27 nM | COc1cc(-c2ccc(C#N)cc2)ccc1OCCCN1CC[C@@H](N(C)C)C1 [Example 173, 4′-{3-[(3R)-3-(dimethylamino)-1-pyrrolidinyl]propoxy}-3′-methoxy-1,1′-biphenyl-4-carbonitrile]
14 nM | CN(C)[C@@H]1CCN(CCCOc2c(F)cc(-c3ccc(C#N)cc3)cc2Cl)C1 [Example 174, 3′-chloro-4′-{3-[(3R)-3-(dimethylamino)-1-pyrrolidinyl]propoxy}-5′-fluoro-1,1′-biphenyl-4-carbonitrile]
